According to paper PMC11822212, “High-throughput screening identifies Aurora kinase B as a critical therapeutic target for Merkel cell carcinoma” (Nature Communications, 2025):
“And” between values parts separate entries of the source, which are not always exact repeats. Equal entries are not always repeated. Where two headings read alike, the source gives them in different places.

Legend:
Assay in all cases: qHTS cell viability (CellTiter-Glo, 72 h; primary and follow-up small molecule screen)
Format in all cases: cell-based, human
MKL-2 cells (VP-MCC) = test system: MKL-2 cells (VP-MCC)
UISO cells (VN-MCC) = test system: UISO cells (VN-MCC)
MCC26 cells (VN-MCC) = test system: MCC26 cells (VN-MCC)
MKL-1 cells (VP-MCC) = test system: MKL-1 cells (VP-MCC)
MCC13 cells (VN-MCC) = test system: MCC13 cells (VN-MCC)
WAGA cells (VP-MCC) = test system: WAGA cells (VP-MCC)

## CCCCCCCCC(=O)NCc1ccc(O)c(OC)c1 [Nonivamide]
MKL-2 cells (VP-MCC)
  Area under the dose-response curve (AUC) MKL-2 Replicate 1: 520.2
  Area under the dose-response curve (AUC) MKL-2 Replicate 2: 501.6
  Area under the dose-response curve (AUC) MKL-2 Replicate 3: 494.8
UISO cells (VN-MCC)
  Area under the dose-response curve (AUC) UISO Replicate 1: 479.2
  Area under the dose-response curve (AUC) UISO Replicate 2: 501.4
  Area under the dose-response curve (AUC) UISO Replicate 3: 453.6
MCC26 cells (VN-MCC)
  Area under the dose-response curve (AUC) MCC26 Replicate 1: 453.4
  Area under the dose-response curve (AUC) MCC26 Replicate 2: 445.4
  Area under the dose-response curve (AUC) MCC26 Replicate 3: 466.4
MKL-1 cells (VP-MCC)
  Area under the dose-response curve (AUC) MKL-1 Replicate 1: 491.5
  Area under the dose-response curve (AUC) MKL-1 Replicate 2: 481.8
  Area under the dose-response curve (AUC) MKL-1 Replicate 3: 491.3
MCC13 cells (VN-MCC)
  Area under the dose-response curve (AUC) MCC13 Replicate 1: 513.1
  Area under the dose-response curve (AUC) MCC13 Replicate 2: 478.1
  Area under the dose-response curve (AUC) MCC13 Replicate 3: 523.7
WAGA cells (VP-MCC)
  Area under the dose-response curve (AUC) WAGA Replicate 1: 544.9
  Area under the dose-response curve (AUC) WAGA Replicate 2: 499.1
  Area under the dose-response curve (AUC) WAGA Replicate 3: 488.2

## Fc1ccc2[nH]ccc2c1-c1nc(N2CCOCC2)c2sc(CN3CCN(CC4CC4)CC3)cc2n1 [PI-3065]
MKL-2 cells (VP-MCC)
  Area under the dose-response curve (AUC): 468.3 and 439.3 and 471.2
UISO cells (VN-MCC)
  Area under the dose-response curve (AUC): 477.0 and 474.8 and 437.8
MCC26 cells (VN-MCC)
  Area under the dose-response curve (AUC): 439.2 and 434.6 and 464.1
MKL-1 cells (VP-MCC)
  Area under the dose-response curve (AUC): 492.3 and 479.8 and 465.2
MCC13 cells (VN-MCC)
  Area under the dose-response curve (AUC): 491.4 and 471.7 and 470.9
WAGA cells (VP-MCC)
  Area under the dose-response curve (AUC): 514.3 and 478.8 and 484.1

## C[C@]12CCC(=NOCCN)C[C@@H]1C(=O)C[C@@H]1[C@@H]2CC[C@]2(C)C(=O)CC[C@@H]12 [PST-2744 (Istaroxime)]
MKL-2 cells (VP-MCC)
  Area under the dose-response curve (AUC): 441.0 and 431.1 and 445.6
UISO cells (VN-MCC)
  Area under the dose-response curve (AUC): 410.4 and 435.6 and 412.5
MCC26 cells (VN-MCC)
  Area under the dose-response curve (AUC): 394.3 and 428.5 and 414.9
MKL-1 cells (VP-MCC)
  Area under the dose-response curve (AUC): 437.3 and 438.4 and 450.7
MCC13 cells (VN-MCC)
  Area under the dose-response curve (AUC): 404.5 and 430.7 and 432.5
WAGA cells (VP-MCC)
  Area under the dose-response curve (AUC): 454.8 and 457.0 and 435.6

## Cc1cc(Nc2ncc3c(n2)N(C)C(=O)N(c2cc(NC(=O)c4cccc(C(F)(F)F)c4)ccc2C)C3)n(C)n1 [Pluripotin]
MKL-2 cells (VP-MCC); follow-up screen, MKL-2, replicate 1
  Area under the dose-response curve (AUC) MKL-2 Replicate 1: 435.4
MKL-2 cells (VP-MCC); follow-up screen, MKL-2, replicate 2
  Area under the dose-response curve (AUC) MKL-2 Replicate 2: 458.3
MKL-2 cells (VP-MCC); follow-up screen, MKL-2, replicate 3
  Area under the dose-response curve (AUC) MKL-2 Replicate 3: 471.4
UISO cells (VN-MCC); follow-up screen, UISO, replicate 1
  Area under the dose-response curve (AUC) UISO Replicate 1: 341.8
UISO cells (VN-MCC); follow-up screen, UISO, replicate 2
  Area under the dose-response curve (AUC) UISO Replicate 2: 376.4
UISO cells (VN-MCC); follow-up screen, UISO, replicate 3
  Area under the dose-response curve (AUC) UISO Replicate 3: 360.3
MCC26 cells (VN-MCC); follow-up screen, MCC26, replicate 1
  Area under the dose-response curve (AUC) MCC26 Replicate 1: 306.5
MCC26 cells (VN-MCC); follow-up screen, MCC26, replicate 2
  Area under the dose-response curve (AUC) MCC26 Replicate 2: 289.3
MCC26 cells (VN-MCC); follow-up screen, MCC26, replicate 3
  Area under the dose-response curve (AUC) MCC26 Replicate 3: 278.9
MKL-1 cells (VP-MCC); follow-up screen, MKL-1, replicate 1
  Area under the dose-response curve (AUC) MKL-1 Replicate 1: 453.5
MKL-1 cells (VP-MCC); follow-up screen, MKL-1, replicate 2
  Area under the dose-response curve (AUC) MKL-1 Replicate 2: 477.1
MKL-1 cells (VP-MCC); follow-up screen, MKL-1, replicate 3
  Area under the dose-response curve (AUC) MKL-1 Replicate 3: 466.2
MCC13 cells (VN-MCC); follow-up screen, MCC13, replicate 1
  Area under the dose-response curve (AUC) MCC13 Replicate 1: 368.1
MCC13 cells (VN-MCC); follow-up screen, MCC13, replicate 2
  Area under the dose-response curve (AUC) MCC13 Replicate 2: 352.7
MCC13 cells (VN-MCC); follow-up screen, MCC13, replicate 3
  Area under the dose-response curve (AUC) MCC13 Replicate 3: 330.6
WAGA cells (VP-MCC); follow-up screen, WAGA, replicate 1
  Area under the dose-response curve (AUC) WAGA Replicate 1: 419.3
WAGA cells (VP-MCC); follow-up screen, WAGA, replicate 2
  Area under the dose-response curve (AUC) WAGA Replicate 2: 439.3
WAGA cells (VP-MCC); follow-up screen, WAGA, replicate 3
  Area under the dose-response curve (AUC) WAGA Replicate 3: 440.2
